The record followed here is ChEMBL document CHEMBL1201862, “PubChem BioAssay data set” (2004).

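Five concentrations, 48 hours, 96-well plates. Abbreviation: GI50, concentration required for 50% inhibition of growth.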 The source made the active and inactive calls. No stated cut-off is given here; in the data, active = GI50 up to about 1.1 µM and inactive = higher.

What all share (assay): inhibition of tumour cell growth, NCI panel, 48 h
Test [1] relates to RPMI-8226.
In test [2] the test system is OVCAR-3.
For test [3], the system named is UACC-257.
Test [4] deals with SNB-19.
For test [5], the system named is OVCAR-4.
Test [6] relates to ACHN.
Test [7] has as its system K562.
The subject of test [8] is IGROV-1.
The subject of test [9] is M14.
In test [10] the test system is UO-31.
For test [11], the system named is HOP-92.
The subject of test [12] is OVCAR-5.
The subject of test [13] is HL-60.
In test [14] the test system is SF-295.
In test [15] the test system is UACC-62.
The subject of test [16] is LOX IMVI.
Test [17] deals with NCI-H226.
The subject of test [18] is SK-OV-3.
Test [19] relates to EKVX.
Test [20] deals with NCI-H522.

On to `COc1ccc2nc(NC(=O)C(=O)C(C#N)c3ccc(Cl)c(Cl)c3)sc2c1` (stereo not given), for which the GI50 in [1], in [2], in [3], in test [4], in test [5] and in test [6] was > 100 µM (inactive) in each case. Moreover, the GI50 in test [7] was > 100 µM (inactive); in [8] it was > 100 µM (inactive); in [9], > 100 µM (inactive); in test [10], > 100 µM (inactive); in test [11] it was 33.9 µM (inactive); in test [12], > 100 µM (inactive). The GI50 in [13], in test [14], in test [15], in [16], in test [17] and in test [18] was > 100 µM (inactive) each time. The GI50 in [19] was 88.9 µM (inactive); in test [20], 36.9 µM (inactive).

For the compound `COC(=O)c1c(C)ccc2c(O)c3c(cc12)C(=O)c1c2c(cc(O)c1C3=O)C1(C)OC(C)(O2)C(O)C(N(C)C)C1O` (stereo not given), the GI50 was 0.946 µM (active) in [1]; 2.41 µM (inactive) in test [2]; 1.65 µM (inactive) in test [3]; 1.35 µM (inactive) in test [4]; 2.12 µM (inactive) in test [5]; 1.23 µM (inactive) in test [6]. Besides, the GI50 in [7] is 0.942 µM (active); in test [8], 1.06 µM (active); in test [9] it was 1.85 µM (inactive); in [10], 1.87 µM (inactive); in test [11], 1.82 µM (inactive); in test [12], 2.96 µM (inactive). In addition, the GI50 is 3.98 µM (inactive) in [13]; 1.81 µM (inactive) in test [14]; 1.66 µM (inactive) in test [15]; 1.24 µM (inactive) in test [16]; 2.26 µM (inactive) in test [17]; 3.33 µM (inactive) in [18]. The GI50 is 2.37 µM (inactive) in test [19] and 1.22 µM (inactive) in test [20].

For `N#C/C(=C\c1ccc(O)cc1O)C(N)=O`, the GI50 was 55.6 µM (inactive) in [1]; > 100 µM (inactive) in [2]; 51.1 µM (inactive) in [3]; 87.9 µM (inactive) in test [4]; > 100 µM (inactive) in test [5]; 32.7 µM (inactive) in test [6]. The GI50 in test [7] is > 100 µM (inactive); in test [8], > 100 µM (inactive); in [9], 82.2 µM (inactive); in [10], 33.6 µM (inactive); in [11], 46.1 µM (inactive); in test [12], > 100 µM (inactive). In addition, the GI50 is 53.6 µM (inactive) in test [13]; > 100 µM (inactive) in test [14]; 58.6 µM (inactive) in [15]; > 100 µM (inactive) in test [16]; 41.6 µM (inactive) in test [17]; 45.6 µM (inactive) in test [18]. In addition, the results for the GI50 in test [19] and in test [20] were > 100 µM (inactive) and 28.3 µM (inactive), respectively.

Turning to `COc1ccc(Cc2coc3ccccc3c2=O)cc1OC`, the GI50 in test [1] is 33.3 µM (inactive); in test [2] it was 78 µM (inactive); in [3] it was 59.2 µM (inactive); in [4] it was > 100 µM (inactive); in test [5], 28.4 µM (inactive); in test [6], 72.4 µM (inactive). In addition, the GI50 in test [7] is 72.6 µM (inactive); in test [8] it was > 100 µM (inactive); in [9], 53.8 µM (inactive); in test [10], 38.5 µM (inactive); in test [11], > 100 µM (inactive); in test [12], > 100 µM (inactive). Moreover, the GI50 was 86.5 µM (inactive) in test [13]; 47.2 µM (inactive) in [14]; > 100 µM (inactive) in [15]; 49.9 µM (inactive) in test [16]; 94 µM (inactive) in test [17]; > 100 µM (inactive) in test [18]. For the same compound, the GI50 was 40.6 µM (inactive) in test [19] and 43.5 µM (inactive) in [20].

For `CCCOc1cc2c(cc1O)CC[C@@H]1[C@@H]2CC[C@]2(C)[C@@H](O)CC[C@@H]12`, the GI50 in test [1] was 1.83 µM (inactive); in [2], 1.55 µM (inactive); in test [3] it was 5.04 µM (inactive); in test [4] it was 6.71 µM (inactive); in test [5], 15.1 µM (inactive); in test [6] it was 5.2 µM (inactive). Moreover, the GI50 is 0.209 µM (active) in [7]; 5.48 µM (inactive) in test [8]; 1.8 µM (inactive) in [9]; 4.95 µM (inactive) in [10]; 10.3 µM (inactive) in test [11]; 27.4 µM (inactive) in [12]. In addition, the GI50 is 0.637 µM (active) in test [13]; 2.76 µM (inactive) in [14]; 1.2 µM (inactive) in [15]; 2.74 µM (inactive) in test [16]; 5.97 µM (inactive) in test [17]; 3.04 µM (inactive) in test [18]. Moreover, the GI50 in test [19] was 6.27 µM (inactive); in [20] it was 0.383 µM (active).

Take `CC(C)=CCC/C(C)=C/CC/C(C)=C/C1CCC(=O)C1(C)C` (stereo not given): the GI50 was 20 µM (inactive) in test [1]; 17.1 µM (inactive) in [2]; 21.3 µM (inactive) in [3]; 25.1 µM (inactive) in test [4]; 24.9 µM (inactive) in [5]; 16.6 µM (inactive) in [6]. In addition, the GI50 was 19.8 µM (inactive) in test [7]; 19.1 µM (inactive) in test [8]; 19.5 µM (inactive) in test [9]; 17 µM (inactive) in [10]; 25.9 µM (inactive) in test [11]; 19.1 µM (inactive) in test [12]. The GI50 was 11.6 µM (inactive) in [13]; 18.3 µM (inactive) in test [14]; 19.1 µM (inactive) in test [15]; 15.3 µM (inactive) in test [16]; 14.7 µM (inactive) in [17]; 30.3 µM (inactive) in test [18]. Besides, the results for the GI50 in test [19] and in [20] were 19.7 µM (inactive) and 15.2 µM (inactive), respectively.

As for `Cn1c2ccccc2c2c(-c3ccccc3)cc3c(c21)C(=O)C=CC3=O`, the GI50 in test [1] was 1.15 µM (inactive); in test [2], 2.05 µM (inactive); in test [3] it was 2.11 µM (inactive); in test [4], 4.05 µM (inactive); in test [5] it was 2.46 µM (inactive); in test [6], 1.63 µM (inactive). In addition, the GI50 is 0.249 µM (active) in [7]; 2.3 µM (inactive) in test [8]; 1.46 µM (inactive) in test [9]; 1.61 µM (inactive) in [10]; 1.96 µM (inactive) in test [11]; > 8.51 µM (inactive) in test [12]. The GI50 in test [13] was 0.361 µM (active); in [14], > 10 µM (inactive); in [15], 1.73 µM (inactive); in test [16], 3.26 µM (inactive); in [17], 2.18 µM (inactive); in [18], > 10 µM (inactive). Further, the figures for the GI50 in test [19] and in test [20] were > 5.3 µM (inactive) and 1.23 µM (inactive), respectively.
